Patent US20250059179A1, “Heterocyclic Compounds and Methods of Use” (AMGEN INC., priority 2021, published 2025)

Assays:
[1] = molecular target: His-tagged KRAS G12D protein (Homo sapiens, UniProt P01116, G12D); assay: KRAS G12D TR-FRET Assay; assay type: binding; details: biotinylated KRPep-2d substrate, 10 μM GDP;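 note: europium anti-His antibody paired with streptavidin-d2 as FRET partners, initial 30 min incubation, then peptide 1 h and detection reagents 1 h, all at room temperature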
[2] = molecular target: GDP-bound KRAS protein (aa 1-169), containing both G12D and C118A amino acid substitutions (Homo sapiens, UniProt P01116, C118A/G12D); assay: KRAS G12D Coupled Nucleotide Exchange Assay; assay type: biochemical; details: 2 h compound pre-incubation; SOS-mediated nucleotide exchange, cRAF AlphaScreen readout;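 note: IC50 obtained by fitting the AlphaScreen signal with a four-parameter logistic curve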
Sequence of GDP-bound KRAS protein (aa 1-169), containing both G12D and C118A amino acid substitutions (P01116 1-169 isoform P01116-2 G12D/C118A): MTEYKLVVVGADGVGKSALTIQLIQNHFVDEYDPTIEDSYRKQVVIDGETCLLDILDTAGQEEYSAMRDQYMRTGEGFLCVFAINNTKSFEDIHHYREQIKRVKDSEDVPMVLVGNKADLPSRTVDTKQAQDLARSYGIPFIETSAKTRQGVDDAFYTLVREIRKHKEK

Sequence of His-tagged KRAS G12D protein (P01116 1-188 isoform P01116-2 G12D): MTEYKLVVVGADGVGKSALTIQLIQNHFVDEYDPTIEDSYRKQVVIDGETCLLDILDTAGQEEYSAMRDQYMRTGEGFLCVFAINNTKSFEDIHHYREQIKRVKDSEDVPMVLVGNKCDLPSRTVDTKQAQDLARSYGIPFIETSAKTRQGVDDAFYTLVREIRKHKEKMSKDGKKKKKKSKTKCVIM

| IC50 [1] | Avg 2 h Coupled Exchange IC50 [2] | Structure (SMILES) |
| --- | --- | --- |
| 11 nM | 3 nM | Cc1c(-c2ccc(F)c3sc(N)nc23)ccc2c(N3C[C@H]4CC[C@@H](C3)N4)nc(OC[C@@]34CCCN3C[C@H](F)C4)nc12 [Example 139, 4-(4-((1R,5S)-3,8-diazabicyclo[3.2.1]octan-3-yl)-2-(((2R,7aS)-2-fluorotetrahydro-1H-pyrrolizin-7a(5H)-yl)methoxy)-8-methylquinazolin-7-yl)-7-fluorobenzo[d]thiazol-2-amine] |
| 12 nM | 3 nM | Nc1nc2c(-c3ccc4c(N5C[C@H]6CC[C@@H](C5)N6)nc(OC[C@@]56CCCN5C[C@H](F)C6)nc4c3F)ccc(F)c2s1 [Example 140, 4-(4-((1R,5S)-3,8-diazabicyclo[3.2.1]octan-3-yl)-8-fluoro-2-(((2R,7aS)-2-fluorotetrahydro-1H-pyrrolizin-7a(5H)-yl)methoxy)quinazolin-7-yl)-7-fluorobenzo[d]thiazol-2-amine] |
| 5850 nM | 2250 nM | CN1CCC[C@H]1COc1nc(N2CCNC[C@@H]2CCO)c2cc(Cl)c(-c3cccc4sc(N)nc34)c(F)c2n1 [Example 36, 2-((2S)-1-(7-(2-aminobenzo[d]thiazol-4-yl)-6-chloro-8-fluoro-2-(((S)-1-methylpyrrolidin-2-yl)methoxy)quinazolin-4-yl)piperazin-2-yl)ethan-1-ol] |
| 882 nM | 578 nM | CN1C[C@H](F)C[C@H]1COc1nc2c(F)c(-c3ccc(F)c4sc(N)nc34)c(Cl)cc2c(N2[C@@H]3CC[C@H]2CNC3)c1C#N [Example 160, 7-(2-amino-7-fluorobenzo[d]thiazol-4-yl)-4-((1R,5S)-3,8-diazabicyclo[3.2.1]octan-8-yl)-6-chloro-8-fluoro-2-(((2S,4R)-4-fluoro-1-methylpyrrolidin-2-yl)methoxy)quinoline-3-carbonitrile] |
| 1840 nM | 504 nM | CN1CC(F)(F)C[C@H]1COc1nc(N2CCNCC2)c2cc(Cl)c(-c3cccc4sc(N)nc34)c(F)c2n1 [Example 65, 4-(6-chloro-2-(((S)-4,4-difluoro-1-methyl-pyrrolidin-2-yl)methoxy)-8-fluoro-4-(piperazin-1-yl)quinazolin-7-yl)benzo[d] thiazol-2-amine] |
| 85 nM | 62 nM | CN1C[C@H](F)C[C@H]1COc1nc(N2CCCNC(=O)C2)c2cc(Cl)c(-c3ccc(F)c4sc(N)nc34)c(F)c2n1 [Example 19, 4-(7-(2-amino-7-fluorobenzo[d]thiazol-4-yl)-6-chloro-8-fluoro-2-(((2S,4R)-4-fluoro-1-methylpyrrolidin-2-yl)methoxy)quinazolin-4-yl)-1,4-diazepan-2-one] |
| 285 nM | 106 nM | Nc1nc2c(-c3c(Cl)cc4c(N5CCNCC5)nc(OC[C@@H]5C[C@H](F)CN5)nc4c3F)cccc2s1 [Example 55, 4-(6-chloro-8-fluoro-2-(((2S,4S)-4-fluoro-pyrrolidin-2-yl)methoxy)-4-(piperazin-1-yl)quinazolin-7-yl)benzo[d] thiazol-2-amine] |
| 11300 nM | 3655 nM | CN1CCC[C@H]1COc1nc(N2CCNC(C(F)(F)F)C2)c2cc(Cl)c(-c3cccc4sc(N)nc34)c(F)c2n1 (stereo partly drawn) [Example 1, 4-(6-Chloro-8-fluoro-2-(((S)-1-methylpyrrolidin-2-yl)methoxy)-4-(3-(trifluoromethyl)piperazin-1-yl)quinazolin-7-yl)benzo[d]thiazol-2-amine] |
| 10700 nM | 2140 nM | CN1CCC[C@H]1CNc1nc(N2CCNCC2)c2cc(Cl)c(-c3cccc4sc(N)nc34)c(F)c2n1 [Example 70, 4-(6-chloro-8-fluoro-2-((((S)-1-methyl-pyrrolidin-2-yl)methyl)amino)-4-(piperazin-1-yl)quinazolin-7-yl)benzo[d] thiazol-2-amine] |
| 687 nM | 321 nM | Nc1nc2c(-c3c(Cl)cc4c(N5CCNCC5)nc(OC[C@@H]5CC(F)(F)CN5)nc4c3F)cccc2s1 [Example 59, 4-(6-chloro-2-(((S)-4,4-difluoro-pyrrolidin-2-yl)methoxy)-8-fluoro-4-(piperazin-1-yl)quinazolin-7-yl)benzo[d] thiazol-2-amine] |
| 473 nM | 429 nM | CCN1CCC(COc2nc(N3CCNCC3)c3cc(Cl)c(-c4cccc5sc(N)nc45)c(F)c3n2)CC1 [Example 63, 4-(6-chloro-2-((1-ethylpiperidin-4-yl)methoxy)-8-fluoro-4-(piperazin-1-yl)quinazolin-7-yl)benzo[d] thiazol-2-amine] |

The remaining lines, values behind:

| Structure (SMILES) | IC50 [1] | Avg 2 h Coupled Exchange IC50 [2] |
| --- | --- | --- |
| CN1CCC[C@H]1COc1nc(N2C[C@H]3CC[C@@H]2CN3)c2cc(Cl)c(-c3cccc4sc(N)nc34)c(F)c2n1 [Example 27, 4-(4-((1R,4R)-2,5-diazabicyclo[2.2.2]octan-2-yl)-6-chloro-8-fluoro-2-(((S)-1-methylpyrrolidin-2-yl)methoxy)quinazolin-7-yl)benzo[d]thiazol-2-amine] | 1210 nM | 429 nM |
| CC1CNCC=C1c1nc(OC[C@@H]2CCCN2C)nc2c(F)c(-c3cccc4sc(N)nc34)c(Cl)cc12 (single isomer, unassigned) [Example 145] | 2970 nM | 803 nM |
| Nc1nc2c(-c3c(Cl)cc4c(N5CCCNC(=O)C5)nc(OCC56CCCN5CCC6)nc4c3F)ccc(F)c2s1 [Example 12, 4-(7-(2-amino-7-fluorobenzo[d]thiazol-4-yl)-6-chloro-8-fluoro-2-((tetrahydro-1H-pyrrolizin-7a(5H)-yl)methoxy)quinazolin-4-yl)-1,4-diazepan-2-one] | 18 nM | 14 nM |
| CN1CCC[C@H]1COc1nc(N2CCN[C@@H](CC#N)C2)c2cc(Cl)c(-c3cccc4sc(N)nc34)c(F)c2n1 [Example 26, 2-((2S)-4-(7-(2-aminobenzo[d]thiazol-4-yl)-6-chloro-8-fluoro-2-(((S)-1-methylpyrrolidin-2-yl)methoxy)quinazolin-4-yl)piperazin-2-yl)acetonitrile] | 1210 nM | 409 nM |
| C[C@@H](CN(C)C)Oc1nc(N2CCNCC2)c2cc(Cl)c(-c3cccc4sc(N)nc34)c(F)c2n1 [Example 48, 4-(6-chloro-2-(((S)-1-(dimethylamino)propan-2-yl)oxy)-8-fluoro-4-(piperazin-1-yl)quinazolin-7-yl)benzo[d] thiazol-2-amine] | 159 nM | 26 nM |
| Nc1nc2c(-c3c(F)cc4c(N5C[C@H]6CC[C@@H](C5)N6)nc(OC[C@@]56CCCN5C[C@H](F)C6)nc4c3F)ccc(F)c2s1 [Example 141, 4-(4-((1R,5S)-3,8-diazabicyclo [3.2.1]octan-3-yl)-6,8-difluoro-2-(((2R,7aS)-2-fluorotetrahydro-1H-pyrrolizin-7a(5H)-yl)methoxy)quinazolin-7-yl)-7-fluorobenzo[d]thiazol-2-amine] | 2 nM | 2 nM |
| Nc1nc2c(-c3c(Cl)cc4c(N5CCNC(=O)CC5)nc(OCC56CCCN5CCC6)nc4c3F)ccc(F)c2s1 [Example 13, 1-(7-(2-amino-7-fluorobenzo [d]thiazol-4-yl)-6-chloro-8-fluoro-2-((tetrahydro-1H-pyrrolizin-7a(5H)-yl)methoxy)quinazolin-4-yl)-1,4-diazepan-5-one] | 22 nM | 14 nM |
| CN1C[C@H](F)C[C@H]1COc1nc(N2CCNC(=O)CC2)c2cc(Cl)c(-c3ccc(F)c4sc(N)nc34)c(F)c2n1 [Example 21, 1-(7-(2-amino-7-fluorobenzo[d]thiazol-4-yl)-6-chloro-8-fluoro-2-(((2S,4R)-4-fluoro-1-methylpyrrolidin-2-yl)methoxy)quinazolin-4-yl)-1,4-diazepan-5-one] | 97 nM | 67 nM |
| Nc1nc2c(-c3c(Cl)cc4c(N5CCNCC5)nc(OC[C@@H]5CCCN5CC(F)F)nc4c3F)cccc2s1 [Example 66, 4-(6-chloro-2-(((S)-1-(2,2-difluoroethyl)pyrrolidin-2-yl)methoxy)-8-fluoro-4-(piperazin-1-yl)quinazolin-7-yl)benzo[d] thiazol-2-amine] | 1620 nM | 549 nM |
| CCN1CCC(Oc2nc(N3CCNCC3)c3cc(Cl)c(-c4cccc5sc(N)nc45)c(F)c3n2)CC1 [Example 128, 4-(6-chloro-2-((1-ethylpiperidin-4-yl)oxy)-8-fluoro-4-(piperazin-1-yl)quinazolin-7-yl)benzo[d]thiazol-2-amine] | 1480 nM | 411 nM |
| CN1CCCC[C@H]1COc1nc(N2CCNCC2)c2cc(Cl)c(-c3cccc4sc(N)nc34)c(F)c2n1 [Example 64, 4-(6-chloro-8-fluoro-2-(((S)-1-methyl-piperidin-2-yl)methoxy)-4-(piperazin-1-yl)quinazolin-7-yl)benzo[d] thiazol-2-amine] | 1190 nM | 446 nM |
| CC1CNCC=C1c1nc(OC[C@@H]2CCCN2C)nc2c(F)c(-c3cccc4sc(N)nc34)c(Cl)cc12 (single isomer, unassigned) [Example 146] | 4090 nM | 1560 nM |
| Nc1nc2c(-c3c(Cl)cc4c(N5CCNCC5)nc(OCC56CCCN5C(=O)CC6)nc4c3F)cccc2s1 (centres unmarked) [Example 43, 7a-(((7-(2-aminobenzo[d]thiazol-4-yl)-6-chloro-8-fluoro-4-(piperazin-1-yl)quinazolin-2-yl)oxy)methyl)hexahydro-3H-pyrrolizin-3-one] | 3190 nM | 3290 nM |
| Nc1nc2c(-c3c(Cl)cc4c(N5CCNCC5)nc(OCC56CCCN5CCC6)nc4c3F)cccc2s1 [Example 44, 4-(6-chloro-8-fluoro-4-(piperazin-1-yl)-2-((tetrahydro-1H-pyrrolizin-7a(5H)-yl)methoxy)quinazolin-7-yl)benzo[d] thiazol-2-amine] | 30 nM | 14 nM |
